Test [1] relates to IL-1β induced IL-6 secretion by U373 astrocytoma cells. Kind of test: IL-1β induced IL-6 secretion by U373 astrocytoma cells (ELISA). It is filed as cell-based. To be noted: IL-1β 10 U/ml, 6 hours, inhibitor 1250, 2500 or 5000 nM. (In general: In an ELISA, binding on a coated surface is turned into a signal by an enzyme label.)
In test [2] the test system is IL-1β induced IL-6 secretion by human primary astrocytes. Kind of test: IL-1β induced IL-6 secretion by human primary astrocytes (ELISA). The test is classed as cell-based. Conditions: IL-1β 10 U/ml, 6 hours, inhibitor 1250, 2500 or 5000 nM. An excerpt: IL-1β has been implicated in both the initiation and propagation of neuroinflammatory changes seen in Alzheimer's disease patients. One of the main mechanisms of IL-1β is the induction of interleukin 6 (IL-6) secretion, which propagates the neuroinflammatory response in Alzheimer's disease patients. Using primary human adult astrocytes this inflammatory response as well as modulators (i.e. potential drugs for therapy) can be studied in vitro. […] In the presence of IL-1β (10 U/ml) these cells secrete IL-6 in the culture supernatant, which can be measured by ELISA. […] Cells were incubated with or without IL-1β (10 U/ml) for 6 hours in the presence of different concentration of IRAK1/4 inhibitor I (1250, 2500, or 5000 nM). IL-6 levels (pg/ml) in the culture supernatants were determined by ELISA. Shown are mean levels +/− S.D. of three replicate stimulations.

Data on 1 compound can be found in patent US20110071052A1, “MEASUREMENT OF PROTEIN KINASE ACTIVITY IN CEREBROSPINAL FLUID FOR DIAGNOSIS OF NEUROLOGICAL AND PSYCHIATRIC DISORDERS” (priority 2008, published 2011).

Regarding `O=C(Nc1nc2ccccc2n1CCN1CCOCC1)c1cccc([N+](=O)[O-])c1` [IRAK1/4 inhibitor I], the “IL-6 secretion in culture supernatant” value in test [1] is “dose-dependently inhibits IL-6 secretion”; in test [1] (listed as IRAK1/4 inhibitor), “reduced”; in test [2], “dose-dependently inhibits IL-6 secretion”; in test [2] (listed as IRAK1/4 inhibitor) it was “reduced”.
